{"source": "patent US20110217715A1", "about": "“GENE EXPRESSION IN DUCHENNE MUSCULAR DYSTROPHY” (CHILDREN'S HOSPITAL MEDICAL CENTER, priority 2008, published 2011)", "system": "mRNA expression in peripheral blood of individuals with DMD", "test": "Whole-blood gene expression microarray: DMD administered deflazacort vs DMD administered prednisone", "assay_type": "in vivo, human", "details": "deflazacort vs. prednisone", "protocol": "Fifteen ml of blood was collected from each individual into 6 PAXgene® Vacutainer® tubes (PreAnalytiX, Germany) by antecubital fossa venipuncture. PAXgene® tubes contain a proprietary reagent that immediately stabilizes RNA, thus reducing RNA degradation and minimizing gene expression changes following phlebotomy. The tubes were then inverted 20 times, then remained undisturbed for 2 h at room temperature (about 19° C. to about 22° C.), and then stored at -70° C. until processed. Total RNA was isolated using the Paxgene® blood RNA kit (PreAnalytiX, Germany) according to the manufacturers instructions. The RNA isolated is from all cells in whole blood. Typical yields of total RNA isolated from about 7.5 ml of human whole blood were between 10 μg RNA and 40 μg RNA. RNA quality and purity was analyzed by spectrophotometry using the Nanodrop ND-1000, and RNA integrity was analyzed using the Agilent 2100 Bioanalyzer. […] Sample labeling, hybridization to chips, and image scanning were performed using standard Affymetrix protocols. For each whole blood sample from control individuals and individuals with DMD, total RNA was labeled using the One-Cycle Target Labeling protocol and hybridized to the arrays. […] Double-stranded cDNA synthesis, biotin-labeled cRNA synthesis, and cRNA fragmentation were performed according to the Affymetrix GeneChip Eukaryotic Expression Analysis protocol. The labeled, fragmented cRNA (15 μg) was hybridized at 45° C. overnight. After hybridization, the array was washed and stained. The arrays were scanned with an argon-ion laser at λ=570 nm, with a resolution of 3 μm/pixel (Affymetrix, Inc.). After scanning the array, the raw probe level values for each probe were saved in Affymetrix.cel files. […] Statistical analyses, including t-test analyses, unsupervised hierarchical clustering, and principal component analyses were conducted using Genespring 7.2 software ([…]® 7, Silicon Genetics, Redwood City Calif.). […] Corrections for multiple comparisons used a Benjamini-Hochberg False Discovery Rate (FDR) of 0.05, disclosed in Tang et al., J Cereb Blood Flow Metab 26 (2006) 1089, which is expressly incorporated by reference herein in its entirety. […] Sample processing and array hybridization, probe-level data analysis, and statistical analysis were identical to Example 1.", "data": [{"compound": "CC(=O)OCC(=O)[C@@]12N=C(C)O[C@@H]1C[C@H]1[C@@H]3CCC4=CC(=O)C=C[C@]4(C)[C@H]3[C@@H](O)C[C@@]12C", "note": "[deflazacort]", "values": [{"measurement": "p-value", "setting": "AV700030, Nucleic Acid No. 2063", "result": 0.0254}, {"measurement": "p-value", "setting": "AV722693, Nucleic Acid No. 1994", "result": 0.000689}, {"measurement": "p-value", "setting": "AW070431, Nucleic Acid No. 2113", "result": 0.0198}, {"measurement": "p-value (t-test, deflazacort vs. prednisone)", "setting": "AW081561, Nucleic Acid No. 2012", "result": 0.0484}, {"measurement": "p-value", "setting": "AW135013, Nucleic Acid No. 2109", "result": 0.0166}, {"measurement": "p-value (t-test, deflazacort vs. prednisone)", "setting": "AW504458, Nucleic Acid No. 2032", "result": 0.0109}, {"measurement": "p-value (t-test, deflazacort vs prednisone)", "setting": "AW590838, Nucleic Acid No. 2082", "result": 0.0481}, {"measurement": "p-value (t-test, deflazacort vs. prednisone)", "setting": "AW978350, Nucleic Acid No. 2027", "result": 0.0388}, {"measurement": "p-value", "setting": "BC001152, Nucleic Acid No. 2025", "result": 0.0219}, {"measurement": "p-value (t-test, deflazacort vs. prednisone)", "setting": "BC003542, Nucleic Acid No. 2048", "result": 0.00709}, {"measurement": "p-value", "setting": "BC006230, Nucleic Acid No. 2123", "result": 0.0131}, {"measurement": "p-value", "setting": "BC006454, Nucleic Acid No. 1650", "result": 0.0101}, {"measurement": "p-value (t-test, deflazacort vs. prednisone)", "setting": "BC012090, Nucleic Acid No. 2043", "result": 0.0289}, {"measurement": "p-value", "setting": "BC017896, Nucleic Acid No. 487", "result": 0.0133}, {"measurement": "p-value (t-test, deflazacort vs. prednisone)", "setting": "BC025237, Nucleic Acid No. 2047", "result": 0.0274}, {"measurement": "p-value (t-test, deflazacort vs. prednisone)", "setting": "BC039454, Nucleic Acid No. 2011", "result": 0.0311}, {"measurement": "p-value", "setting": "BC042832, Nucleic Acid No. 2103", "result": 0.0214}, {"measurement": "p-value (t-test, deflazacort vs prednisone)", "setting": "BC043187, Nucleic Acid No. 2073", "result": 0.0446}, {"measurement": "p-value", "setting": "BE207758, Nucleic Acid No. 1913", "result": 0.00136}, {"measurement": "p-value", "setting": "BE348688, Nucleic Acid No. 1904", "result": 0.0249}, {"measurement": "p-value", "setting": "BE439987, Nucleic Acid No. 1711", "result": 0.0106}, {"measurement": "p-value", "setting": "BE465380, Nucleic Acid No. 1911", "result": 0.0346}, {"measurement": "p-value", "setting": "BE550881, Nucleic Acid No. 2102", "result": 0.0423}, {"measurement": "p-value (t-test, deflazacort vs. prednisone)", "setting": "BE563442, Nucleic Acid No. 2062", "result": 0.00559}, {"measurement": "p-value", "setting": "BE727883, Nucleic Acid No. 2120", "result": 0.0383}, {"measurement": "p-value (t-test, deflazacort vs. prednisone)", "setting": "BE880245, Nucleic Acid No. 2033", "result": 0.00733}, {"measurement": "p-value (t-test, deflazacort vs prednisone)", "setting": "BE964989, Nucleic Acid No. 2085", "result": 0.0484}, {"measurement": "p-value (t-test, deflazacort vs. prednisone)", "setting": "BF338947, Nucleic Acid No. 2056", "result": 0.0148}, {"measurement": "p-value", "setting": "BF477544, Nucleic Acid No. 1895", "result": 0.0499}, {"measurement": "p-value (t-test, deflazacort vs prednisone)", "setting": "BF514079, Nucleic Acid No. 1363", "result": 0.0432}, {"measurement": "p-value", "setting": "BF575213, Nucleic Acid No. 2122", "result": 0.00608}, {"measurement": "p-value (t-test, deflazacort vs. prednisone)", "setting": "BF694956, Nucleic Acid No. 2041", "result": 0.0262}, {"measurement": "p-value (t-test, deflazacort vs prednisone)", "setting": "BG029530, Nucleic Acid No. 2074", "result": 0.000753}, {"measurement": "p-value (t-test, deflazacort vs prednisone)", "setting": "BG249565, Nucleic Acid No. 2087", "result": 0.00518}, {"measurement": "p-value", "setting": "D87291, Nucleic Acid No. 2077", "result": 0.0322}, {"measurement": "p-value", "setting": "H12280, Nucleic Acid No. 2098", "result": 0.038}, {"measurement": "p-value", "setting": "L18865, Nucleic Acid No. 2114", "result": 0.034}, {"measurement": "p-value (t-test, deflazacort vs. prednisone)", "setting": "M15330, Nucleic Acid No. 2060", "result": 0.0137}, {"measurement": "p-value (t-test, deflazacort vs prednisone)", "setting": "M35999, Nucleic Acid No. 2071", "result": 0.014}, {"measurement": "p-value (t-test, deflazacort vs. prednisone)", "setting": "M60626, Nucleic Acid No. 2020", "result": 0.0333}, {"measurement": "p-value", "setting": "N36408, Nucleic Acid No. 2019", "result": 0.0384}, {"measurement": "p-value", "setting": "N59653, Nucleic Acid No. 1900", "result": 0.044}, {"measurement": "p-value (t-test, deflazacort vs prednisone)", "setting": "N66633, Nucleic Acid No. 2090", "result": 0.0434}, {"measurement": "p-value (t-test, deflazacort vs. prednisone)", "setting": "NM_000404, Nucleic Acid No. 2029", "result": 0.000522}, {"measurement": "p-value (t-test, deflazacort vs prednisone)", "setting": "NM_000419, Nucleic Acid No. 2070", "result": 0.0421}, {"measurement": "p-value", "setting": "NM_000484, Nucleic Acid No. 1261", "result": 0.00856}, {"measurement": "p-value", "setting": "NM_000565, Nucleic Acid No. 2064", "result": 0.0489}, {"measurement": "p-value (t-test, deflazacort vs. prednisone)", "setting": "NM_000576, Nucleic Acid No. 2059", "result": 0.00127}, {"measurement": "p-value", "setting": "NM_001109, Nucleic Acid No. 1899", "result": 0.0468}, {"measurement": "p-value", "setting": "NM_001154, Nucleic Acid No. 1902", "result": 0.0116}, {"measurement": "p-value (t-test, deflazacort vs. prednisone)", "setting": "NM_001456, Nucleic Acid No. 2015", "result": 0.0172}, {"measurement": "p-value (t-test, deflazacort vs. prednisone)", "setting": "NM_001553, Nucleic Acid No. 2057", "result": 0.0297}, {"measurement": "p-value (t-test, deflazacort vs. prednisone)", "setting": "NM_001557, Nucleic Acid No. 2065", "result": 0.0421}, {"measurement": "p-value", "setting": "NM_001637, Nucleic Acid No. 1903", "result": 0.0269}, {"measurement": "p-value", "setting": "NM_001659, Nucleic Acid No. 1908", "result": 0.00749}, {"measurement": "p-value", "setting": "NM_001690, Nucleic Acid No. 1917", "result": 0.021}, {"measurement": "p-value (t-test, deflazacort vs. prednisone)", "setting": "NM_002068, Nucleic Acid No. 2030", "result": 0.00544}, {"measurement": "p-value (t-test, deflazacort vs. prednisone)", "setting": "NM_002087, Nucleic Acid No. 2038", "result": 0.0294}, {"measurement": "p-value (t-test, deflazacort vs. prednisone)", "setting": "NM_002110, Nucleic Acid No. 2040", "result": 0.0352}, {"measurement": "p-value (t-test, deflazacort vs. prednisone)", "setting": "NM_002155, Nucleic Acid No. 2049", "result": 0.0206}, {"measurement": "p-value (t-test, deflazacort vs prednisone)", "setting": "NM_002199, Nucleic Acid No. 2068", "result": 0.0118}, {"measurement": "p-value (t-test, deflazacort vs prednisone)", "setting": "NM_002229, Nucleic Acid No. 2076", "result": 0.0299}, {"measurement": "p-value", "setting": "NM_003644, Nucleic Acid No. 2023", "result": 0.00498}, {"measurement": "p-value", "setting": "NM_003879, Nucleic Acid No. 1948", "result": 0.0159}, {"measurement": "p-value", "setting": "NM_004041, Nucleic Acid No. 1914", "result": 0.0324}, {"measurement": "p-value (t-test, deflazacort vs. prednisone)", "setting": "NM_004517, Nucleic Acid No. 2066", "result": 0.0161}, {"measurement": "p-value", "setting": "NM_004735, Nucleic Acid No. 2106", "result": 0.0293}]}]}
